Results from PubChem BioAssay (NCI).
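Growth conditions: 96-well plates. Treatment: test compound, 48 hours, 5 concentrations. Analysis: linear interpolation between bracketing concentrations; unreached endpoints set to highest concentration. GI50: concentration for 50% inhibition of growth. TGI: concentration producing complete growth inhibition.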

Experiments:
Experiment in all cases: DTP human tumour cell line panel, 48 h
CCRF-CEM leukemia = tested on: CCRF-CEM leukemia
SK-MEL-2 melanoma = tested on: SK-MEL-2 melanoma
TK-10 renal = tested on: TK-10 renal
RPMI-8226 leukemia = tested on: RPMI-8226 leukemia
RXF 393 renal = tested on: RXF 393 renal
UACC-257 melanoma = tested on: UACC-257 melanoma
SF-268 CNS = tested on: SF-268 CNS
OVCAR-4 ovarian = tested on: OVCAR-4 ovarian
MOLT-4 leukemia = tested on: MOLT-4 leukemia
HOP-92 NSCLC = tested on: HOP-92 NSCLC
CAKI-1 renal = tested on: CAKI-1 renal
HL-60(TB) leukemia = tested on: HL-60(TB) leukemia
K-562 leukemia = tested on: K-562 leukemia
BT-549 breast = tested on: BT-549 breast
A549 NSCLC = tested on: A549 NSCLC
SNB-75 CNS = tested on: SNB-75 CNS
NCI-H522 lung = tested on: NCI-H522 lung
SF-295 CNS = tested on: SF-295 CNS
MDA-MB-468 breast = tested on: MDA-MB-468 breast
T-47D breast = tested on: T-47D breast
MDA-MB-435 = tested on: MDA-MB-435
NCI-H226 lung = tested on: NCI-H226 lung
SNB-19 CNS = tested on: SNB-19 CNS
MCF7 breast = tested on: MCF7 breast
786-0 renal = tested on: 786-0 renal
HCC-2998 colon = tested on: HCC-2998 colon
OVCAR-3 ovarian = tested on: OVCAR-3 ovarian
SK-MEL-28 melanoma = tested on: SK-MEL-28 melanoma
UACC-62 melanoma = tested on: UACC-62 melanoma
U251 CNS = tested on: U251 CNS
IGROV1 ovarian = tested on: IGROV1 ovarian
M14 melanoma = tested on: M14 melanoma
MDA-MB-231 breast = tested on: MDA-MB-231 breast
SW-620 colon = tested on: SW-620 colon
UO-31 renal = tested on: UO-31 renal
HCT-116 colon = tested on: HCT-116 colon
SR leukemia = tested on: SR leukemia
SN12C renal = tested on: SN12C renal
MALME-3M melanoma = tested on: MALME-3M melanoma
HCT-15 colon = tested on: HCT-15 colon
COLO 205 colon = tested on: COLO 205 colon
LOX IMVI melanoma = tested on: LOX IMVI melanoma
HOP-62 NSCLC = tested on: HOP-62 NSCLC
EKVX NSCLC = tested on: EKVX NSCLC
PC-3 prostate = tested on: PC-3 prostate
OVCAR-8 ovarian = tested on: OVCAR-8 ovarian
HS 578T breast = tested on: HS 578T breast
SF-539 CNS = tested on: SF-539 CNS
OVCAR-5 ovarian = tested on: OVCAR-5 ovarian
SK-OV-3 ovarian = tested on: SK-OV-3 ovarian
SK-MEL-5 melanoma = tested on: SK-MEL-5 melanoma
NCI-H460 lung = tested on: NCI-H460 lung
NCI-H23 lung = tested on: NCI-H23 lung
HT29 colon = tested on: HT29 colon
A498 renal = tested on: A498 renal
ACHN renal = tested on: ACHN renal
KM12 colon = tested on: KM12 colon
DU-145 prostate = tested on: DU-145 prostate

O=C(c1ccc(Cl)cc1)C1[C@H](c2ccc(Br)cc2)[C@@H](c2ccccc2)NC12C(=O)Nc1ccc(Br)cc12 (stereo partly specified)
GI50 (CCRF-CEM leukemia): 1.49 µM | TGI (CCRF-CEM leukemia): 4.98 µM | GI50 (SK-MEL-2 melanoma): 5.3 µM | TGI (SK-MEL-2 melanoma): 11.5 µM | GI50 (TK-10 renal): 3.07 µM | TGI (TK-10 renal): 10 µM | GI50 (RPMI-8226 leukemia): 1.45 µM | TGI (RPMI-8226 leukemia): 4.86 µM | GI50 (RXF 393 renal): 1.18 µM | TGI (RXF 393 renal): 3.25 µM | GI50 (UACC-257 melanoma): 3.29 µM | TGI (UACC-257 melanoma): 9.91 µM | GI50 (SF-268 CNS): 1.88 µM | TGI (SF-268 CNS): 9.16 µM | GI50 (OVCAR-4 ovarian): 2.23 µM | TGI (OVCAR-4 ovarian): 9.06 µM | GI50 (MOLT-4 leukemia): 1.39 µM | TGI (MOLT-4 leukemia): 5.05 µM | GI50 (HOP-92 NSCLC): 1.38 µM | TGI (HOP-92 NSCLC): 4.1 µM | GI50 (CAKI-1 renal): 1.71 µM | TGI (CAKI-1 renal): 6.79 µM | GI50 (HL-60(TB) leukemia): 1.45 µM | TGI (HL-60(TB) leukemia): 6.79 µM | GI50 (K-562 leukemia): 1.65 µM | TGI (K-562 leukemia): 6.45 µM | GI50 (BT-549 breast): 2.47 µM | TGI (BT-549 breast): 8.33 µM | GI50 (A549 NSCLC): 1.6 µM | TGI (A549 NSCLC): 6.03 µM | GI50 (SNB-75 CNS): 1.55 µM | TGI (SNB-75 CNS): 8.89 µM | GI50 (NCI-H522 lung): 1.42 µM | TGI (NCI-H522 lung): 6.69 µM | GI50 (SF-295 CNS): 2.13 µM | TGI (SF-295 CNS): 8.48 µM | GI50 (MDA-MB-468 breast): 1.55 µM | TGI (MDA-MB-468 breast): 7.73 µM | GI50 (T-47D breast): 1.74 µM | TGI (T-47D breast): 7.41 µM | GI50 (MDA-MB-435): 2.79 µM | TGI (MDA-MB-435): 9.4 µM | GI50 (NCI-H226 lung): 1.81 µM | TGI (NCI-H226 lung): 7.96 µM | GI50 (SNB-19 CNS): 3.95 µM | TGI (SNB-19 CNS): 10.9 µM | GI50 (MCF7 breast): 1.48 µM | TGI (MCF7 breast): 5.24 µM | GI50 (786-0 renal): 1.34 µM | TGI (786-0 renal): 4.15 µM | GI50 (HCC-2998 colon): 1.62 µM | TGI (HCC-2998 colon): 4.99 µM | GI50 (OVCAR-3 ovarian): 2.42 µM | TGI (OVCAR-3 ovarian): 8.6 µM | GI50 (SK-MEL-28 melanoma): 4.78 µM | TGI (SK-MEL-28 melanoma): 10.7 µM | GI50 (UACC-62 melanoma): 2.94 µM | TGI (UACC-62 melanoma): 9.44 µM | GI50 (U251 CNS): 1.53 µM | TGI (U251 CNS): 6.07 µM | GI50 (IGROV1 ovarian): 2.46 µM | TGI (IGROV1 ovarian): 8.43 µM | GI50 (M14 melanoma): 1.89 µM | TGI (M14 melanoma): 7.61 µM | GI50 (MDA-MB-231 breast): 1.4 µM | TGI (MDA-MB-231 breast): 4.37 µM | GI50 (SW-620 colon): 2.24 µM | TGI (SW-620 colon): 8.37 µM | GI50 (UO-31 renal): 1.53 µM | TGI (UO-31 renal): 6.36 µM | GI50 (HCT-116 colon): 1.09 µM | TGI (HCT-116 colon): 2.35 µM | GI50 (SR leukemia): 1.03 µM | TGI (SR leukemia): 2.99 µM | GI50 (SN12C renal): 1.04 µM | TGI (SN12C renal): 2.43 µM | GI50 (MALME-3M melanoma): 4.86 µM | TGI (MALME-3M melanoma): 10.7 µM | GI50 (HCT-15 colon): 1.6 µM | TGI (HCT-15 colon): 6.07 µM | GI50 (COLO 205 colon): 0.946 µM | TGI (COLO 205 colon): 2.08 µM | GI50 (LOX IMVI melanoma): 0.927 µM | TGI (LOX IMVI melanoma): 1.99 µM | GI50 (HOP-62 NSCLC): 5.17 µM | TGI (HOP-62 NSCLC): 11.5 µM | GI50 (EKVX NSCLC): 1.94 µM | TGI (EKVX NSCLC): 8.07 µM | GI50 (PC-3 prostate): 1.65 µM | TGI (PC-3 prostate): 6.18 µM | GI50 (OVCAR-8 ovarian): 1.93 µM | TGI (OVCAR-8 ovarian): 6.97 µM | GI50 (HS 578T breast): 4.15 µM | TGI (HS 578T breast): 18.2 µM | GI50 (SF-539 CNS): 4.67 µM | TGI (SF-539 CNS): 10.8 µM | GI50 (OVCAR-5 ovarian): 3.55 µM | TGI (OVCAR-5 ovarian): 9.88 µM | GI50 (SK-OV-3 ovarian): 5.49 µM | TGI (SK-OV-3 ovarian): 13.1 µM | GI50 (SK-MEL-5 melanoma): 6.2 µM | TGI (SK-MEL-5 melanoma): 12.6 µM | GI50 (NCI-H460 lung): 1.07 µM | TGI (NCI-H460 lung): 2.54 µM | GI50 (NCI-H23 lung): 1.72 µM | TGI (NCI-H23 lung): 6.78 µM | GI50 (HT29 colon): 1.19 µM | TGI (HT29 colon): 3.09 µM | GI50 (A498 renal): 5.34 µM | TGI (A498 renal): 11.6 µM | GI50 (ACHN renal): 1.52 µM | TGI (ACHN renal): 5.07 µM | GI50 (KM12 colon): 1.82 µM | TGI (KM12 colon): 7.45 µM | GI50 (DU-145 prostate): 2.81 µM | TGI (DU-145 prostate): 9.37 µM
